Source: patent US11426402B2, “IRE1 activating compounds for use in therapy” (The Scripps Research Institute, priority 2019, dated 2022)
Blank lines part the entries; values can stand above or below the compound they belong to.

Legend:
[1] = system: DNAJB9; assay type: cell-based; details: 4 μ8c 32 μM
[2] = system: BiP; assay: qPCR of ATF6-regulated gene BiP in HEK293T cells; assay type: cell-based
Experimental: (§1) FIG. 3A-FIG. 3D. […] Error bars show SEM for n=3. […] Error bars show SEM for n=3. […] Error bars show SEM for n=3.
The compounds were measured for their abilities to induce expression of ER stress-responsive genes CHOP and BiP (or […]) regulated downstream of the PERK and ATF6 UPR signaling pathways, respectively^8, 40. The Tg-dependent expression of these two genes is largely insensitive to 4 μ8c, confirming their induction through an IRE1/XBP1s independent mechanism.

[3] = system: secreted Aβ; assay: Aβ ELISA of media conditioned on CHO 7PA2 cells (V717F APP); assay type: cell-based; details: 4 μ8c 32 μM
Experimental: (§2) FIGS. 5A-5D. […] Cells were treated for 18 hours, media was then replaced and conditioned in the presence of treatments for 24 hours before harvesting for ELISA assay. Error bars represent SEM for n=3 replicates. Statistics calculated from one-tailed Student's t-test. *p<0.05, **p<0.01, ***p<0.001 (FIG. 5A). Quantification of media and lysate immunoblots from 474 treatment (10 μM) of APP. Error bars represent Standard Deviation for n=3 replicates. Statistics calculated from one-tailed Student's t-test. *p<0.05, **p<0.01 ***p<0.001 (FIG. 5B). Plot showing fraction of total remaining APP at each time point after S35 metabolic labeling of newly synthesized protein, accounting for the sum of APP in lysate and media. Error bars represent Standard Deviation for n=3 replicates. Statistics calculated from one-tailed Student's t-test. *p<0.05, **p<0.01, ***p<0.001 (FIG. 5C). Plot showing fraction of secreted APP collected at 2 hours after metabolic labeling. Error bars represent Standard Deviation for n=3 replicates. Statistics calculated from one-tailed Student's t-test. *p<0.05, **p<0.01, ***p<0.001 (FIG. 5D).
7PA2 or 7WD10 cells were cultured on 96-well plates (Corning) and treated with IRE1 activating compounds +/−4 μ8c overnight. The medium was then replaced at 50% volume with treatment remaing, culture medium was collected after 24 hours. The medium was analyzed by an AP ELISA as follows. Monoclonal 6E10 anti-Aβ(residues 1-17) mouse IgG1, (Biolegend) was coated in […] carbonate buffer, pH 9.6, at 4° C. overnight on high binding assay black plates (Costar), washed with TBST (tris buffered saline with 0.05% Tween 20) and blocked with 5% non-fat milk in TBST. Samples and standards (condition 7PA2 media) were incubated for 1.5 hr, followed by addition of 4G8 antibody [anti-Aβ residues 17-24, mouse IgG2b (Biolegend)] conjugated to horseradish peroxidase (hrp) and incubated for 1.5 hr at 25° C. After washing, ABM substrate was added, followed by detection with an absorbance plate reader.
ELISA was used to monitor Aβ in media conditioned on a CHO cell line stably expressing the destabilized, disease-associated V717F APP mutant (CHO^7PA2)^45 treated with or without compounds 198, 474, and 970. […] The reduction in A secretion can be attributed to IRE1 activation because the reduced extracellular accumulation of Aβ is blocked by co-treatment with the active site IRE1 inhibitor 4 μ8c (FIG. 5A).

[4] = system: APP; assay: APP immunoblots of lysates and conditioned media of CHO 7PA2 cells; assay type: cell-based; details: with compound 474
Experimental: as §2, with “5D). […]” for “5D).”

[5] = system: IRE1/XBP1s signaling pathway; assay: XBP1-RLuc splicing reporter in HEK293T-REx cells; assay type: cell-based; details: activators 10 μM, 4 μ8c 32 μM, 18 hr
Experimental: FIG. 2A and FIG. 2B. Activation of RLuc luminescence in HEK293T-Rex cells stably expressing XBP1s-RLuc treated with 10 μM IRE1 activators in the presence or absence of IRE1 inhibitor 4 μ8c (32 μM) for 18 hr. Luminescence is shown as % signal relative to Tg treatment (500 nM; 18 hr). Error bars represent standard deviation for n=3 replicates (FIG. 2A), Activation of RLuc luminescence in HEK293T-Rex cells stably expressing XBP1s-RLuc treated with the indicated concentrations of IRE1 activator compounds for 18 hr. Luminescence is shown as % signal relative to Tg treatment (500 nM; 18 hr) Error bars represent standard deviation for n=3 replicates (FIG. 2B).
HEK293T-Rex cells incorporating either the XBP1s-Rluc or ERSE-FLuc reporters were collected by trypsinization and resuspended at a density of 500,000 cells per mL. The assay was started by dispensing 5 μL of cell suspension into each well of white, solid-bottom 1536-well plates using a flying reagent dispenser (FRD) and placed into an online incubator for 3 hr. Cells were then treated with 34 nL/well of either test compounds to give final concentrations of 5.17 μM, DMSO (low control, final concentration 0.68%, 0% activation) or 37 μM of Delta-7 thapsigargin (high control, final concentration 500 nM, 100% activation). Plates were incubated for 18 hr at 37° C., removed from the incubator and equilibrated to room temperature for 10 min. Luciferase activity was detected by addition of 5 μL of ONE-Glo reagent (Promega) to each well. After a 10 min incubation time, light emission was measured with the ViewLux reader (PerkinElmer).
The percent activation of each test compound was calculated as follows: % Activation=100*(Test Compound-Median Low Control)/(Median High Control Median Low Control). Primary screening of the 646,275 compound library at Scripps Florida yielded 10,114 hits for XBP1s Renilla Luciferase activity at ≥13.83% activation by thapsigargin. Compounds that hit in more than 7 screens (promiscuity score) were eliminated, as well as those that elicited HSP70 activation. The top 6,391 remaining compounds (activation≥16.36%) were moved forward to triplicate confirmation screening and HEK TREX CTG cytotoxicity counterscreening. Duplicates were removed from the resulting list, and the top 638 activating compounds (≥15.92%) were moved forward for triplicate titration screening and HEK TREX CTG titration counterscreening.
A HEK293^T-REx cell line that stably expresses a XBP1-Renilla luciferase (XBP1-RLuc) splicing reporter was used to identify compounds that activated the IRE1/XBP1s signaling pathway^37. Activated IRE1selectively splices mRNA encoded by this reporter, resulting in a frame-shift that allows expression of the active Renilla luciferase enzyme^37. […]

[6] = molecular target: IRE1 (Homo sapiens, UniProt O75460); assay: IRE1 phosphorylation by Phos-tag SDS-PAGE and immunoblotting in HEK293T cells; assay type: cell-based; details: co-treatment of Tg (500 nM) and 1 μM APY29
Sequence of IRE1 (O75460 19-977): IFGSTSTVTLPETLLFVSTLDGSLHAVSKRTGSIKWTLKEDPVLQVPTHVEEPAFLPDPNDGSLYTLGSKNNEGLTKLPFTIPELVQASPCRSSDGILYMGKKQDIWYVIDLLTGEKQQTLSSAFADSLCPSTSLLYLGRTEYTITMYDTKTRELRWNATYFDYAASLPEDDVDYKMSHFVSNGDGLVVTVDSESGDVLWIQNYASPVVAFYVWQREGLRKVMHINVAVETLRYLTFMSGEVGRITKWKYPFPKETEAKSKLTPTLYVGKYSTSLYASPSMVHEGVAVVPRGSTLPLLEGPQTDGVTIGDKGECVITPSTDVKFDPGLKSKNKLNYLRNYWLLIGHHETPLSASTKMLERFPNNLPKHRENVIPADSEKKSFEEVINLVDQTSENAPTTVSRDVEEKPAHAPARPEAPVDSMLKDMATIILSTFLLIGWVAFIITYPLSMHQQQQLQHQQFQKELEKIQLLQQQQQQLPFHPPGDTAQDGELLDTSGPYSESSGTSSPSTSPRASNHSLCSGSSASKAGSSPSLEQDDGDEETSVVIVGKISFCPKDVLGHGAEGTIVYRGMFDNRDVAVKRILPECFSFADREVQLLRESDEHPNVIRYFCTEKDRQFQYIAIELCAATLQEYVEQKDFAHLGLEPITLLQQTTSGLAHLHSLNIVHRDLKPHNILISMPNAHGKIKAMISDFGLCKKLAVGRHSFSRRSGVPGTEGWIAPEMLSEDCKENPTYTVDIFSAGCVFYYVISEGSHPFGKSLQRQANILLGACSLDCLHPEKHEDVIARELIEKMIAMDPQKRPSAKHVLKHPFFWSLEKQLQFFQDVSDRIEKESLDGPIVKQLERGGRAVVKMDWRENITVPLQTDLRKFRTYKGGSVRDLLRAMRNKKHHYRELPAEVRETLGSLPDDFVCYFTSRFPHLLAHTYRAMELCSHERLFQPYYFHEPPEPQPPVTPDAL
Experimental: as §1
Cell lysates were prepared as previously described in RIPA buffer (50 mM Tris, pH 7.5, 150 mM NaCl, 0.1% SDS, 1% Triton X-100, 0.5% deoxycholate and protease inhibitor cocktail (Roche). Total protein concentration in cellular lysates was normalized using the Bio-Rad protein assay. Lysates were then denatured with 1× Laemmli buffer+100 mM DTT and boiled before being separated by SDS-PAGE. Samples were transferred onto nitrocellulose membranes (Bio-Rad) for immunoblotting and blocked with 5% milk in Tris-buffered saline, 0.5% Tween-20 (TBST) following incubation overnight at 4° C. with primary antibodies. Membranes were washed in TBST, incubated with IR-Dye conjugated secondary antibodies and analyzed using Odyssey Infrared Imaging System (LI-COR Biosciences). Quantification was carried out with LI-COR Image Studio software.
Compounds that activate IRE1 through binding the IRE1 kinase active site and inhibiting IRE1 autophosphorylation can elicit off-target activity likely associated with binding to other protein kinases.^20, 35, 36 Thus, the purpose of this example was to define the dependence of the present compounds on IRE1 kinase activity. HEK293T cells were treated with compound 198, 474, or 970 in the absence or presence of Tg, and IRE1 phosphorylation was monitored by using Phos-tag SDS-PAGE and immunoblotting. As a control, cells were treated with APY29—an IRE1 kinase site inhibitor that allosterically activates the IRE1 RNAse^20 in the absence or presence of Tg.

[7] = system: XBP1 splicing; assay: XBP1 splicing in HEK293T cells with or without KIRA6; assay type: cell-based
Experimental: To amplify the spliced and unspliced XBP1 mRNA, XBP1 primers were used as described previously.^21 PCR products were electrophoresed on 2.5% agarose gel. GAPDH (forward 5′[…]3′, reverse 5′[…]3′) was used as a loading control. The size difference between the spliced and the unspliced XBP1 is 26 nucleotides.
Next was determined the dependence of compound-dependent IRE1 RNAse activation on autophosphorylation. HEK293T cells were initially treated with the compounds in the absence or presence of KIRA6—a compound that binds the nucleotide binding pocket and inhibits both IRE1 kinase and RNAse activity^36. Co-treatment with KIRA6 blocked compound-dependent XBP1splicing.

[8] = system: RIDD targets SCARA3, Bloc1s1 and Col6A1; assay: IRE1 RIDD activity from the RNAseq dataset in HEK293T cells; assay type: cell-based, human; details: 6 hours
Experimental: Cells were lysed and total RNA collected using the RNeasy mini kit, according to manufacturer's instructions (Qiagen). Conventional RNA-seq was conducted via BGI Americas on the BGI Proprietary platform, providing single-end 50 bp reads at 20 million reads per sample. Alignment of sequencing data was done using DNAstar Lasergene SeqManPro to the GRCh37. p 13 human genome reference assembly, and assembly data were imported into ArrayStar 12.2 with QSeq (DNAStar Inc.) to quantify the gene expression levels and normalization to reads per kilobase per million (RPKM). Differential expression analysis and statistical significance calculations between different conditions was assessed using “DESeq” in R, compared to vehicle-treated cells, using a standard negative binomial fit of the RPKM data to generate Fold Change quantifications.
Also evaluated was IRE1 RIDD activity induced by the compounds using the RNAseq dataset. Despite robust IRE1/XBP1s transcriptional activity following 6 hours of treatment, there was no evidence for RIDD after the same 6 hours.

SMILES: Cc1cc(=O)oc2c(C=O)c(O)ccc12 [4 μ8c, reference compound]
effect of 4 μ8c co-treatment on compound-increased DNAJB9 expression [1]: inhibited
effect of co-treatment on compound-dependent BiP increase [2]: blocked
effect of 4 μ8c co-treatment on reduced extracellular Aβ [3]: blocked
effect of 4 μ8c co-treatment on reduced APP levels [4]: reversed
effect of 4 μ8c co-administration on compound-dependent XBP1 splicing reporter activation [5]: blocked

IRE1 phosphorylation [6]: significant reductions
SMILES: c1cc(Nc2cc(C3CC3)[nH]n2)nc(Nc2ccc3nc[nH]c3c2)n1 [APY29, reference compound]

SMILES: CC(C)(C)c1nc(-c2ccc(NC(=O)Nc3cccc(C(F)(F)F)c3)c3ccccc23)c2c(N)nccn12 [KIRA6]
effect of KIRA6 co-treatment on compound-dependent XBP1 splicing [7]: blocked

SMILES: C/C=C(/C)C(=O)O[C@H]1C(C)=C2[C@H]([C@@H]1OC(=O)CCCCCCC)[C@@](C)(OC(C)=O)C[C@H](OC(=O)CCC)[C@@]1(O)[C@H]2OC(=O)[C@@]1(C)O [Tg, thapsigargin]
levels of RIDD targets SCARA3, Bloc1s1 and Col6A1 [8]: reduced
